What was measured:
Type in all cases: in vivo
[1] = system: Echinochloa oryzacola Vasing.; assay: Test Example 1: herbicidal activity, application before weed generation in submerged conditions; conditions: Application herbicide amount 320 g/ha; Seventeenth Table
How it was run: (§1)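 Alluvial soil in Wagner pots flooded to 4 cm water depth; weed seeds sown and 2.5 leaf stage rice seedlings transplanted. Emulsion diluted in water applied to water surface on sowing day at stated g/ha. Greenhouse 25° C. to 30° C.; effects scored 0–5 by herbicidal ratio after three weeks.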

[2] = system: Monochoria vaginalis; assay: as above; conditions: Application herbicide amount 320 g/ha; Seventeenth Table
How it was run: as §1

[3] = system: Scirpus juncoides; assay: as above; conditions: Application herbicide amount 320 g/ha; Seventeenth Table
How it was run: as §1

[4] = system: transplanted Oryza sativa; assay: Test Example 1: effect on crop, application before weed generation in submerged conditions; conditions: Application herbicide amount 320 g/ha; Seventeenth Table
How it was run: as §1

[5] = system: Abutilon theophrasti; assay: Test Example 4: herbicidal effect by application to foliage (diluvial soil, plastic box); conditions: for M (Abutilon theophrasti) herbicidal effect: application to foliage, application herbicide amount 320 g/ha
How it was run: (§2)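 Scores run from 0 (herbicidal ratio ≤5%) to 5 (≥90%, almost fully withered) and were assessed three weeks after foliar spraying. Seedlings had been raised for 14 days at 25-30° C in sterilized diluvial soil before treatment, with the emulsion diluted in water to the stated g/ha dose.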

[6] = system: Alopecurus myosuroides; assay: as above; conditions: for J (Alopecurus myosuroides) herbicidal effect: application to foliage, application herbicide amount 320 g/ha
How it was run: as §2

[7] = system: Apera spica-venti.; assay: as above; conditions: for L (Apera spica-venti.) herbicidal effect: application to foliage, application herbicide amount 320 g/ha
How it was run: as §2

[8] = system: Avena fatua; assay: as above; conditions: for I (Avena fatua) herbicidal effect: application to foliage, application herbicide amount 320 g/ha
How it was run: as §2

[9] = system: Chenopodium album; assay: as above; conditions: for O (Chenopodium album) herbicidal effect: application to foliage, application herbicide amount 320 g/ha
How it was run: as §2

[10] = system: Digitaria ciliaris; assay: as above; conditions: for F (Digitaria ciliaris) herbicidal effect: application to foliage, application herbicide amount 320 g/ha
How it was run: as §2

[11] = system: Echinochloa crus-galli var. crus-galli; assay: as above; conditions: for H (Echinochloa crus-galli var. crus-galli) herbicidal effect: application to foliage, application herbicide amount 320 g/ha
How it was run: as §2

[12] = system: Galium spurium; assay: as above; conditions: for Q (Galium spurium) herbicidal effect: application to foliage, application herbicide amount 320 g/ha
How it was run: as §2

[13] = system: Lolium multiflorum Lam.; assay: as above; conditions: for K (Lolium multiflorum Lam.) herbicidal effect: application to foliage, application herbicide amount 320 g/ha
How it was run: as §2

[14] = system: Setaria viridis; assay: as above; conditions: for G (Setaria viridis) herbicidal effect: application to foliage, application herbicide amount 320 g/ha
How it was run: as §2

[15] = system: Veronica persica; assay: as above; conditions: for R (Veronica persica) herbicidal effect: application to foliage, application herbicide amount 320 g/ha
How it was run: as §2

[16] = system: Beta vulgaris ssp. vulgaris; assay: Test Example 4: effect on crop by application to foliage (diluvial soil, plastic box); conditions: for f (Beta vulgaris ssp. vulgaris) effect on crop: application to foliage, application herbicide amount 320 g/ha
How it was run: as §2

[17] = system: Brassica campestris L.; assay: as above; conditions: for g (Brassica campestris L.) effect on crop: application to foliage, application herbicide amount 320 g/ha
How it was run: as §2

[18] = system: Glycine max; assay: as above; conditions: for c (Glycine max) effect on crop: application to foliage, application herbicide amount 320 g/ha
How it was run: as §2

[19] = system: Triticum aestivum; assay: as above; conditions: for e (Triticum aestivum) effect on crop: application to foliage, application herbicide amount 320 g/ha
How it was run: as §2

[20] = system: Zea mays; assay: as above; conditions: for b (Zea mays) effect on crop: application to foliage, application herbicide amount 320 g/ha
How it was run: as §2

[21] = system: directly sowed Oryza sativa; assay: as above; conditions: for d (directly sowed Oryza sativa) effect on crop: application to foliage, application herbicide amount 320 g/ha
How it was run: as §2

[22] = Application herbicide amount 320 g/ha
[23] = Application herbicide amount 320 g/ha, effect on crop

Structure (SMILES)	A: Echinochloa oryzicola Vasing. (herbicidal effect grade) [1]	C: Monochoria vaginalis (herbicidal effect grade) [2]	B: Scirpus juncoides (herbicidal effect grade) [3]	a: transplanted Oryza sativa (effect on crop grade) [4]	M (Abutilon theophrasti) herbicidal effect [5]	J (Alopecurus myosuroides) herbicidal effect [6]	L (Apera spica-venti.) herbicidal effect [7]	I (Avena fatua) herbicidal effect [8]	O (Chenopodium album) herbicidal effect [9]	F (Digitaria ciliaris) herbicidal effect [10]	H (Echinochloa crus-galli var. crus-galli) herbicidal effect [11]	Q (Galium spurium) herbicidal effect [12]	K (Lolium multiflorum Lam.) herbicidal effect [13]	G (Setaria viridis) herbicidal effect [14]	R (Veronica persica) herbicidal effect [15]	f (Beta vulgaris ssp. vulgaris) effect on crop [16]	g (Brassica campestris L.) effect on crop [17]	c (Glycine max) effect on crop [18]	e (Triticum aestivum) effect on crop [19]	b (Zea mays) effect on crop [20]	further results
CCCc1nnc2c(C(=O)Nc3nnc(C)o3)ccc(C(F)(F)F)n12 [1-024]	5 (Herbicidal ratio of 90% or more (almost completely withered))	0 (Herbicidal ratio of 5% or less (almost no effect))	2 (Herbicidal ratio of 20% or more and less than 40%)	0 (Herbicidal ratio of 5% or less (almost no effect))	4 (Herbicidal ratio of 70% or more and less than 90%)	0 (Herbicidal ratio of 5% or less (almost no effect))	1 (Herbicidal ratio of 5% or more and less than 20%)	1 (Herbicidal ratio of 5% or more and less than 20%)	5 (Herbicidal ratio of 90% or more (almost completely withered))	4 (Herbicidal ratio of 70% or more and less than 90%)	4 (Herbicidal ratio of 70% or more and less than 90%)	3 (Herbicidal ratio of 40% or more and less than 70%)	0 (Herbicidal ratio of 5% or less (almost no effect))	3 (Herbicidal ratio of 40% or more and less than 70%)	4 (Herbicidal ratio of 70% or more and less than 90%)	4 (Herbicidal ratio of 70% or more and less than 90%)	4 (Herbicidal ratio of 70% or more and less than 90%)	2 (Herbicidal ratio of 20% or more and less than 40%)	0 (Herbicidal ratio of 5% or less (almost no effect))	0 (Herbicidal ratio of 5% or less (almost no effect))	d (directly sowed Oryza sativa) effect on crop [21]: 4 (Herbicidal ratio of 70% or more and less than 90%)
CC[S+]([O-])c1nnc2c(C(=O)Nc3nnc(C)o3)ccc(C(F)(F)F)n12 (stereo not drawn) [1-034]	4 (Herbicidal ratio of 70% or more and less than 90%)	4 (Herbicidal ratio of 70% or more and less than 90%)	4 (Herbicidal ratio of 70% or more and less than 90%)	3 (Herbicidal ratio of 40% or more and less than 70%)	5 (Herbicidal ratio of 90% or more (almost completely withered))	1 (Herbicidal ratio of 5% or more and less than 20%)	3 (Herbicidal ratio of 40% or more and less than 70%)	3 (Herbicidal ratio of 40% or more and less than 70%)	5 (Herbicidal ratio of 90% or more (almost completely withered))	5 (Herbicidal ratio of 90% or more (almost completely withered))	5 (Herbicidal ratio of 90% or more (almost completely withered))	3 (Herbicidal ratio of 40% or more and less than 70%)	3 (Herbicidal ratio of 40% or more and less than 70%)	5 (Herbicidal ratio of 90% or more (almost completely withered))	5 (Herbicidal ratio of 90% or more (almost completely withered))	5 (Herbicidal ratio of 90% or more (almost completely withered))	4 (Herbicidal ratio of 70% or more and less than 90%)	1 (Herbicidal ratio of 5% or more and less than 20%)	2 (Herbicidal ratio of 20% or more and less than 40%)	5 (Herbicidal ratio of 90% or more (almost completely withered))	d (directly sowed Oryza sativa) effect on crop [21]: 4 (Herbicidal ratio of 70% or more and less than 90%)
Cc1nnc(NC(=O)c2ccc(C(F)(F)F)n3c(N4CCOCC4)nnc23)o1 [1-096]	5 (Herbicidal ratio of 90% or more (almost completely withered))	4 (Herbicidal ratio of 70% or more and less than 90%)	4 (Herbicidal ratio of 70% or more and less than 90%)	3 (Herbicidal ratio of 40% or more and less than 70%)	–	–	–	–	–	–	–	–	–	–	–	–	–	–	–	–	M [5, 22]: 4 (Herbicidal ratio of 70% or more and less than 90%); J [6, 22]: 1 (Herbicidal ratio of 5% or more and less than 20%); L [7, 22]: 3 (Herbicidal ratio of 40% or more and less than 70%); I [8, 22]: 2 (Herbicidal ratio of 20% or more and less than 40%); O [9, 22]: 5 (Herbicidal ratio of 90% or more (almost completely withered)); F [10, 22]: 5 (Herbicidal ratio of 90% or more (almost completely withered)); H [11, 22]: 5 (Herbicidal ratio of 90% or more (almost completely withered)); Q [12, 22]: 4 (Herbicidal ratio of 70% or more and less than 90%); K [13, 22]: 2 (Herbicidal ratio of 20% or more and less than 40%); G [14, 22]: 5 (Herbicidal ratio of 90% or more (almost completely withered)); R [15, 22]: 5 (Herbicidal ratio of 90% or more (almost completely withered)); f [16, 23]: 5 (Herbicidal ratio of 90% or more (almost completely withered)); g [17, 23]: 5 (Herbicidal ratio of 90% or more (almost completely withered)); c [18, 23]: 4 (Herbicidal ratio of 70% or more and less than 90%); e [19, 23]: 1 (Herbicidal ratio of 5% or more and less than 20%); b [20, 23]: 4 (Herbicidal ratio of 70% or more and less than 90%); d [21, 23]: 4 (Herbicidal ratio of 70% or more and less than 90%)

From US9708314B2, “Heterocyclic amide compound” (NISSAN CHEMICAL INDUSTRIES, LTD., priority 2013, dated 2017)
